Results from patent US10208037B2, “Toll-like receptor-7 and -8 modulatory 1H imidazoquinoline derived compounds” (The University of Kansas, priority 2011, dated 2019).

Legend:
human PBMCs [1] = assay: Immunoassays for IFN-α, IFN-γ, IL-12 and IL-18 in human PBMCs; format: cell-based
Experimental: Fresh human peripheral blood mononuclear cells (PBMC) were isolated from human blood obtained by venipuncture with informed consent and as per institutional guidelines on Ficoll-Hypaque gradients as described elsewhere.^53 Aliquots of PBMCs (10^5 cells in 100 µL/well) were stimulated for 12 h with graded concentrations of test compounds. Supernatants were isolated by centrifugation, diluted 1:20, and were assayed in triplicates using a high-sensitivity analyte-specific ELISA kits (PBL Interferon Source, Piscataway, N.J. and R&D Systems, Inc., Minneapolis, Minn.).

Aqueous solubility = format: physicochemical
outbred CF-1 mice = assay: Immunization of CF-1 mice with bovine α-lactalbumin, antibody ELISA; format: in vivo; settings: relative to α-lactalbumin alone; boost Day 14, bled Day 21
Experimental: FIGS. 10A-10D are graphs illustrating immunoglobulin profiles in outbred CF-1 mice immunized on Day 0 with 50 μg/animal of α-lactalbumin, or α-lactalbumin covalently coupled with 5 equivalents of 8, or α-lactalbumin mixed with 5 equivalents of 7d. Animals (5 per cohort) were boosted once on Day 14 exactly as mentioned above, and bled on Day 21. α-lactalbumin-specific immunoglobulin levels were quantified by standard antibody-capture ELISA, performed in liquid handler-assisted 384-well format.
FIG. 11 is a graph illustrating affinity IgG ELISA showing antibody titer as a function of chaotrope (NaSCN) concentration. IgG titers on the ordinate axis were calculated from absorbance values at 0.25 (which corresponds to […] above that of naïve controls).
All experiments were performed in accordance with animal care protocols approved by the University of Kansas IACUC Committee. […]
A precision 2000 liquid handler (Bio-Tek, Winooski, Vt.) was used for all serial dilution and reagent addition steps, and a Bio-Tek ELx405 384-well plate washer was employed for plate washes; 100 mM phosphate-buffered saline (PBS) pH 7.4, containing 0.1% Tween-20 was used as wash buffer. […] Plates were then read at 450 nm using a SpectraMax M4 device (Molecular Devices, Sunnyvale, Calif.). […]

TLR7 = target: T1, TLR7 (Homo sapiens, UniProt Q9NYK1); assay: TLR7 reporter gene assay (NF-κB induction, HEK-Blue-7 cells), agonism; format: cell-based
T1 construct: expressed in transfected cells; host or cells: HEK293 (HEK-Blue-7 cells)
T1 sequence (Q9NYK1 27-1049): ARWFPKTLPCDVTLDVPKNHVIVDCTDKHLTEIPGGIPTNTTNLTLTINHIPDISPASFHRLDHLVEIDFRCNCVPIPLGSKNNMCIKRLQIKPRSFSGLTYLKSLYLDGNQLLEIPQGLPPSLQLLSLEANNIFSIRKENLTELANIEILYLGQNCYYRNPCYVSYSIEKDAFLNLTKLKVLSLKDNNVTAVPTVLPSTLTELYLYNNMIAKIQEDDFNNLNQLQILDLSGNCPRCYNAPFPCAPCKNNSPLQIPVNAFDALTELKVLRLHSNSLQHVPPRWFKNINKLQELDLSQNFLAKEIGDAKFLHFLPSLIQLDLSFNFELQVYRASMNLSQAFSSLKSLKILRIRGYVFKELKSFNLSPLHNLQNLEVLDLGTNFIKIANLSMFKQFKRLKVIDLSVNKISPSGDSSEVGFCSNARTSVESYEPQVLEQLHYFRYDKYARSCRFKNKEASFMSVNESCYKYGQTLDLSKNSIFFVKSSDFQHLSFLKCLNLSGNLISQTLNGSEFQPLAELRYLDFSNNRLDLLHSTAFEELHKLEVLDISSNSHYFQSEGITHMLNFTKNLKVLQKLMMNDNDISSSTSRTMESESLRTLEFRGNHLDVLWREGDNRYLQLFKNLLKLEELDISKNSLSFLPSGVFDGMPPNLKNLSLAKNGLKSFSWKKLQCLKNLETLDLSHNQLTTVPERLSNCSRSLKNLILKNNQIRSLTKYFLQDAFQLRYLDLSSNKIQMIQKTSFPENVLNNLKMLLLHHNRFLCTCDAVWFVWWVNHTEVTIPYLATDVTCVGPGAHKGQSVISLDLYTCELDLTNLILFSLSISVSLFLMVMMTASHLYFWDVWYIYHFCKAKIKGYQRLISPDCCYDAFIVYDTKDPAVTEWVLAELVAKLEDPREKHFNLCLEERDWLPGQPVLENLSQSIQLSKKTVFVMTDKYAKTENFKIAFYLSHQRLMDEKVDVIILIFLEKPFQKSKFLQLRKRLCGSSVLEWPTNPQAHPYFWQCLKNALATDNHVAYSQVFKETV
Source text: (§1) NF-κB induction: The induction of NF-κB was quantified using HEK-Blue-7 cells and HEK-Blue-8 cells as previously described by us.^8,24 HEK293 cells were stably transfected with human TLR7 (or human TLR8), MD2, and secreted alkaline phosphatase (sAP), and were maintained in HEK-Blue™ Selection medium containing zeocin and normocin. Stable expression of secreted alkaline phosphatase (sAP) under control of NF-κB/AP-1 promoters is inducible by the TLR7 (or TLR8) agonists, and extracellular sAP in the supernatant is proportional to NF-κB induction. HEK-Blue cells were incubated at a density of […] in a volume of 80 μL/well, in 384-well, flat-bottomed, cell culture-treated microtiter plates until confluency was achieved, and subsequently graded concentrations of stimuli. sAP was assayed spectrophotometrically using an alkaline phosphatase-specific chromogen (present in HEK-detection medium as supplied by the vendor) at 620 nm.
(§2) The induction of NF-κB was quantified using HEK-Blue-3, HEK-Blue-7 and HEK-Blue-8 cells as previously described by us.^8,24,51 HEK293 cells were stably transfected with human TLR3 (or human TLR7 or human TLR8), MD2, and secreted alkaline phosphatase (sAP), and were maintained in HEK-Blue™ Selection medium containing zeocin and normocin. Stable expression of secreted alkaline phosphatase (sAP) under control of NF-κB/AP-1 promoters is inducible by the TLR3 (or TLR7 or TLR8) agonists, and extracellular sAP in the supernatant is proportional to NF-κB induction. HEK-Blue cells were incubated at a density of ˜10^5 cells/ml in a volume of 80 μl/well, in 384-well, flat-bottomed, cell culture-treated microtiter plates until confluency was achieved, and subsequently graded concentrations of stimuli. sAP was assayed spectrophotometrically using an alkaline phosphatase-specific chromogen (present in HEK-detection medium as supplied by the vendor) at 620 nm.

TLR8 = target: T2, TLR8 (Homo sapiens, UniProt Q9NR97); assay: TLR8 reporter gene assay (NF-κB induction, HEK-Blue-8 cells), agonism; format: cell-based
T2 construct: expressed in transfected cells; host or cells: HEK293 (HEK-Blue-8 cells)
T2 sequence (Q9NR97 27-1041): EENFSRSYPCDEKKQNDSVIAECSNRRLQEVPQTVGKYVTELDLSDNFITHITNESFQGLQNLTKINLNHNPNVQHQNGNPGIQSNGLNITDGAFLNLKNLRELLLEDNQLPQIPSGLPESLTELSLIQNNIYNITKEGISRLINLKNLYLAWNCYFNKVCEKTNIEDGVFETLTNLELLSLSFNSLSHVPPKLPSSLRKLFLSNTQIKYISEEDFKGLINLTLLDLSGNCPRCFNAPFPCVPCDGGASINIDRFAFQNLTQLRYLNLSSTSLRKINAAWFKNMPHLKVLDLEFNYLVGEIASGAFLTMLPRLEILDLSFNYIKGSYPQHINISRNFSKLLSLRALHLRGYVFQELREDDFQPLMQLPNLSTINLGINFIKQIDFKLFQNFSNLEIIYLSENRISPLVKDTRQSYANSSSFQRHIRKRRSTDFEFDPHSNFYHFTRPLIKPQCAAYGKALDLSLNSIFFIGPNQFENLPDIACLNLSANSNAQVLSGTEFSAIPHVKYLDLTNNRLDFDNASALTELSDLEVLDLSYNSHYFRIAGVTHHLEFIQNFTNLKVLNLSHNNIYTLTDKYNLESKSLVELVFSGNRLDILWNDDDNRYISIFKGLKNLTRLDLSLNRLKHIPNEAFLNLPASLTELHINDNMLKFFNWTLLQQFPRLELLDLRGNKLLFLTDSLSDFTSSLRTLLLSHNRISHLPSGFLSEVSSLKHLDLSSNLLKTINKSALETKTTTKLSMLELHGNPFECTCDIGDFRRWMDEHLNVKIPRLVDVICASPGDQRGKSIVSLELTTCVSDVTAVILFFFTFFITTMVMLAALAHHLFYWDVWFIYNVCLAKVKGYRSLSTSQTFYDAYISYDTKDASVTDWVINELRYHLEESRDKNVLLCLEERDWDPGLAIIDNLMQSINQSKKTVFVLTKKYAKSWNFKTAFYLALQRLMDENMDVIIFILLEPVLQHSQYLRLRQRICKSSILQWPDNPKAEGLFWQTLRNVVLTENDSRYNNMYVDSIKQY
Source text: as §1, §2

human PBMCs [2] = assay: Proinflammatory cytokine induction in human PBMCs; format: cell-based
Experimental: Aliquots (10^6 cells in 100 μL) of hPBMCs isolated from blood obtained from healthy human donors after informed consent by conventional Ficoll-Hypaque gradient centrifugation were stimulated for 12 h with graded concentrations of test compounds. The supernatant was isolated by centrifugation, diluted 1:20, and cytokines and chemokines were assayed in triplicate using analyte-specific cytokine/chemokine bead array assays as reported by us previously.^74

rabbits = assay: Rabbit immunization model using bovine α-lactalbumin as model subunit vaccine; settings: in vivo
Source text: FIG. 18 illustrates ratios of Immune-1/pre-immune (after primary vaccination) and Immune-2/pre-immune (after Boost-1) anti-α-lactalbumin IgG titers in rabbits. FIGS. 19A and 19B are graphs illustrating TLR7 and TLR8 agonistic activities of the imidazoquinoline dimers in human TLR-specific reporter gene assays.
FIG. 27 illustrates ratios of immune-1/pre-immune (after primary vaccination) and Immune-2/pre-immune (after Boost-1) anti-α-lactalbumin IgG titers in rabbits using the hybrids as adjuvants. Also shown are the IMDQ (7d) and PAM2CS, as well as IMDQ (7d)+PAM2CS mixture controls.

Structure (SMILES)	Th1 bias (induction of IFN-α, IFN-γ, IL-12, IL-18) (human PBMCs [1])	Aqueous solubility (in words) (Aqueous solubility)	α-lactalbumin-specific antibody titers (outbred CF-1 mice)	TLR7-agonistic activity (in words) (TLR7)	TLR8-agonistic activity (in words) (TLR8)	IFN-γ induction (in words) (human PBMCs [1])	Proinflammatory cytokine induction (in words) (human PBMCs [2])	Adjuvantic activity, anti-α-lactalbumin IgG titers in rabbits (rabbits)
CCCCc1nc2c(N)nc3ccccc3c2n1Cc1ccc(CN)cc1 [Compound 7d, 1-(4-(Aminomethyl)benzyl)-2-butyl-1H-imidazo[4,5-c]quinolin-4-amine]	prominent Th1 bias	excellent	dramatic enhancements in antibody titers					
CCCCc1nc2c(N)nc3ccccc3c2n1Cc1ccc(CNC(=O)Cn2cc(CN(CCN(CCN(Cc3cn(CC(=O)NCc4ccc(Cn5c(CCCC)nc6c(N)nc7ccccc7c65)cc4)nn3)Cc3cn(CC(=O)NCc4ccc(Cn5c(CCCC)nc6c(N)nc7ccccc7c65)cc4)nn3)CCN(Cc3cn(CC(=O)NCc4ccc(Cn5c(CCCC)nc6c(N)nc7ccccc7c65)cc4)nn3)Cc3cn(CC(=O)NCc4ccc(Cn5c(CCCC)nc6c(N)nc7ccccc7c65)cc4)nn3)Cc3cn(CC(=O)NCc4ccc(Cn5c(CCCC)nc6c(N)nc7ccccc7c65)cc4)nn3)nn2)cc1 [Compound 43]				retaining in large measure the TLR7-agonistic activity	loss of TLR8-stimulatory activity	selective and complete loss of TLR8-associated IFN-γ	absence of proinflammatory cytokine induction	better than 7d
